Experimental data reported in ChEMBL document CHEMBL3352214, “Studies on indolizines. Evaluation of their biological properties as microtubule-interacting agents and as melanoma targeting compounds” (Eur J Med Chem, 2015).

Experiments:
MCF7 = experiment: Growth inhibition of human MCF7 cells at 10^-5 M after 48 hrs by SRB assay; assay type: functional; conditions: MCF7, 48 h, read-out: GI
[1] = Growth inhibition of human EKVX cells at 10^-5 M after 48 hrs by SRB assay; assay type: functional; conditions: read-out: GI
[2] = Growth inhibition of human PC3 cells at 10^-5 M after 48 hrs by SRB assay; assay type: functional; conditions: PC-3, 48 h, read-out: GI
[3] = Growth inhibition of human HOP92 cells at 10^-5 M after 48 hrs by SRB assay; assay type: functional; conditions: HOP-92, 48 h, read-out: GI
[4] = Growth inhibition of human SF295 cells at 10^-5 M after 48 hrs by SRB assay; assay type: functional; conditions: SF-295, 48 h, read-out: GI
Malme-3M = experiment: Growth inhibition of human MALME-3M cells at 10^-5 M after 48 hrs by SRB assay; assay type: functional; conditions: read-out: GI
SNB-75 [5] = experiment: Growth inhibition of human SNB75 cells at 10^-5 M after 48 hrs by SRB assay; assay type: functional; conditions: SNB-75, 48 h, read-out: GI
[6] = Growth inhibition of human MOLT4 cells at 10^-5 M after 48 hrs by SRB assay; assay type: functional; conditions: MOLT-4, 48 h, read-out: GI
MDA-MB-435 = experiment: Growth inhibition of human MDA-MB-435 cells at 10^-5 M after 48 hrs by SRB assay; assay type: functional; conditions: MDA-MB-435, 48 h, read-out: GI
T47D = experiment: Growth inhibition of human T47D cells at 10^-5 M after 48 hrs by SRB assay; assay type: functional; conditions: Homo sapiens, T47D, 48 h; read-out: GI
Ovis aries = organism: Ovis aries; experiment: Inhibition of sheep brain tubulin polymerization at 100 uM by fluorescence assay
[7] = Growth inhibition of human HCT116 cells at 10^-5 M after 48 hrs by SRB assay; assay type: functional; conditions: HCT-116, 48 h, read-out: GI
A498 = experiment: Growth inhibition of human A498 cells at 10^-5 M after 48 hrs by SRB assay; assay type: functional; conditions: A498, 48 h, read-out: GI
HL-60(TB) = experiment: Growth inhibition of human HL-60(TB) cells at 10^-5 M after 48 hrs by SRB assay; assay type: functional; conditions: HL-60, 48 h, read-out: GI
[8] = Growth inhibition of human HCT15 cells at 10^-5 M after 48 hrs by SRB assay; assay type: functional; conditions: HCT-15, 48 h, read-out: GI
NCI-H522 = experiment: Growth inhibition of human NCI-H522 cells at 10^-5 M after 48 hrs by SRB assay; assay type: functional; conditions: NCI-H522, 48 h, read-out: GI
CAKI-1 = experiment: Growth inhibition of human Caki1 cells at 10^-5 M after 48 hrs by SRB assay; assay type: functional; conditions: CAKI-1, 48 h, read-out: GI
[9] = Inhibition of sheep brain tubulin polymerization by fluorescence assay; parameters: species or system Ovis aries
SNB-75 [10] = experiment: Cytotoxicity against human SNB75 cells assessed as cell growth at 10^-5 M after 48 hrs by SRB assay; assay type: functional; conditions: SNB-75, 48 h, read-out: Activity

Q: What does the source list for `CCOC(=O)c1cc(C(=O)c2cc(OC)c(OC)c(OC)c2)n2ccc(OC)cc12`?
A: inhibition of growth at 10 µM (MCF7): 37%; inhibition of growth at 10 µM [1]: 4%; inhibition of growth at 10 µM [2]: 31%; inhibition of growth at 10 µM [3]: 8%; inhibition of growth at 10 µM [4]: 32%; inhibition of growth at 10 µM (Malme-3M): 13%; inhibition of growth at 10 µM (SNB-75 [5]): 12%; inhibition of growth at 10 µM [6]: 0%; inhibition of growth at 10 µM (MDA-MB-435): 89%; inhibition of growth at 10 µM (T47D): 5%; inhibition (Ovis aries): 9%; inhibition of growth at 10 µM [7]: 18%; inhibition of growth at 10 µM (A498): 52%; inhibition of growth at 10 µM (HL-60(TB)): 17%; inhibition of growth at 10 µM [8]: 21%; inhibition of growth at 10 µM (NCI-H522): 44%; inhibition of growth at 10 µM (CAKI-1): 32%

Q: With `CCOC(=O)c1cc(C(=O)c2cc(OC)c(OC)c(OC)c2)n2cc(C)ccc12` as the molecule, how does the IC50 [9] read?
A: The IC50 was 33.5 µM.

Q: And the inhibition (Ovis aries)?
A: The inhibition was 73%.

Q: With `COc1cc([C@@H]2c3cc4c(cc3C[C@H]3COC(=O)[C@@H]32)OCO4)cc(OC)c1OC` [DESOXYPODOPHYLLOTOXIN] as the molecule, how does the IC50 [9] read?
A: The IC50 was 1.76 µM.

Q: And the inhibition (Ovis aries)?
A: Its inhibition is 100%.

Q: Which inhibition of growth at 10 µM (MCF7) does the source give for `COc1ccc(C(=O)c2cc(C#N)c3c(C)cc(C)cn23)cc1` here?
A: Its inhibition of growth at 10 µM is 46%.

Q: And the growth at 10 µM (SNB-75 [10])?
A: Its growth at 10 µM is -4%.

Q: What about the inhibition of growth at 10 µM [2] of the same molecule?
A: The inhibition of growth at 10 µM was 38%.

Q: And the inhibition of growth at 10 µM [3]?
A: Its inhibition of growth at 10 µM is 43%.

Q: What about the inhibition of growth at 10 µM [4] of the same molecule?
A: Its inhibition of growth at 10 µM is 30%.

Q: What about the inhibition of growth at 10 µM (Malme-3M) of the same molecule?
A: Its inhibition of growth at 10 µM is 35%.

Q: What about the inhibition of growth at 10 µM (SNB-75 [5]) of the same molecule?
A: Its inhibition of growth at 10 µM is 100%.

Q: What about the inhibition of growth at 10 µM [6] of the same molecule?
A: Its inhibition of growth at 10 µM is 1%.

Q: And the inhibition of growth at 10 µM (MDA-MB-435)?
A: Its inhibition of growth at 10 µM is 27%.

Q: What about the inhibition of growth at 10 µM (T47D) of the same molecule?
A: The inhibition of growth at 10 µM was 60%.

Q: And the inhibition (Ovis aries)?
A: The inhibition was 27%.

Q: What about the inhibition of growth at 10 µM [7] of the same molecule?
A: The inhibition of growth at 10 µM was 80%.

Q: What about the inhibition of growth at 10 µM (A498) of the same molecule?
A: The inhibition of growth at 10 µM was 53%.

Q: And the inhibition of growth at 10 µM (HL-60(TB))?
A: Its inhibition of growth at 10 µM is 0%.

Q: What about the inhibition of growth at 10 µM [8] of the same molecule?
A: The inhibition of growth at 10 µM was 27%.

Q: And the inhibition of growth at 10 µM (NCI-H522)?
A: The inhibition of growth at 10 µM was 58%.

Q: What about the inhibition of growth at 10 µM (CAKI-1) of the same molecule?
A: The inhibition of growth at 10 µM was 28%.

Q: For `COC(=O)c1c(C(=O)OC)c2cc(C)ccn2c1C(=O)c1cc(OC)c(OC)c(OC)c1`, which inhibition of growth at 10 µM (MCF7) is on record?
A: The inhibition of growth at 10 µM was 0%.

Q: And the inhibition of growth at 10 µM [1]?
A: The inhibition of growth at 10 µM was 0%.

Q: And the inhibition of growth at 10 µM [2]?
A: Its inhibition of growth at 10 µM is 1%.

Q: What about the inhibition of growth at 10 µM [3] of the same molecule?
A: Its inhibition of growth at 10 µM is 5%.

Q: What about the inhibition of growth at 10 µM [4] of the same molecule?
A: The inhibition of growth at 10 µM was 0%.

Q: And the inhibition of growth at 10 µM (Malme-3M)?
A: The inhibition of growth at 10 µM was 8%.

Q: And the inhibition of growth at 10 µM (SNB-75 [5])?
A: Its inhibition of growth at 10 µM is 7%.

Q: What about the inhibition of growth at 10 µM [6] of the same molecule?
A: The inhibition of growth at 10 µM was 4%.

Q: And the inhibition of growth at 10 µM (MDA-MB-435)?
A: Its inhibition of growth at 10 µM is 0%.

Q: And the inhibition of growth at 10 µM (T47D)?
A: The inhibition of growth at 10 µM was 3%.

Q: What about the inhibition (Ovis aries) of the same molecule?
A: Its inhibition is 2%.

Q: What about the inhibition of growth at 10 µM [7] of the same molecule?
A: Its inhibition of growth at 10 µM is 0%.

Q: And the inhibition of growth at 10 µM (A498)?
A: The inhibition of growth at 10 µM was 3%.

Q: And the inhibition of growth at 10 µM (HL-60(TB))?
A: Its inhibition of growth at 10 µM is 7%.

Q: And the inhibition of growth at 10 µM [8]?
A: Its inhibition of growth at 10 µM is 3%.

Q: And the inhibition of growth at 10 µM (NCI-H522)?
A: Its inhibition of growth at 10 µM is 5%.

Q: And the inhibition of growth at 10 µM (CAKI-1)?
A: Its inhibition of growth at 10 µM is 3%.

Q: For `CCOC(=O)c1cc(C(=O)c2cc(OC)c(OC)c(OC)c2Br)n2ccc(OC)cc12`, which inhibition of growth at 10 µM (MCF7) is on record?
A: The inhibition of growth at 10 µM was 7%.

Q: And the inhibition of growth at 10 µM [1]?
A: Its inhibition of growth at 10 µM is 52%.

Q: And the inhibition of growth at 10 µM [2]?
A: Its inhibition of growth at 10 µM is 60%.

Q: And the inhibition of growth at 10 µM [3]?
A: Its inhibition of growth at 10 µM is 39%.

Q: What about the inhibition of growth at 10 µM [4] of the same molecule?
A: Its inhibition of growth at 10 µM is 38%.

Q: And the inhibition of growth at 10 µM (Malme-3M)?
A: Its inhibition of growth at 10 µM is 0%.

Q: What about the inhibition of growth at 10 µM (SNB-75 [5]) of the same molecule?
A: Its inhibition of growth at 10 µM is 0%.

Q: What about the inhibition of growth at 10 µM [6] of the same molecule?
A: The inhibition of growth at 10 µM was 60%.

Q: What about the IC50 [9] of the same molecule?
A: The IC50 was 104 µM.

Q: And the inhibition of growth at 10 µM (MDA-MB-435)?
A: The inhibition of growth at 10 µM was 10%.

Q: What about the inhibition of growth at 10 µM (T47D) of the same molecule?
A: Its inhibition of growth at 10 µM is 36%.

Q: And the inhibition (Ovis aries)?
A: The inhibition was 54%.

Q: And the inhibition of growth at 10 µM [7]?
A: Its inhibition of growth at 10 µM is 31%.

Q: And the inhibition of growth at 10 µM (A498)?
A: The inhibition of growth at 10 µM was 23%.

Q: What about the inhibition of growth at 10 µM (HL-60(TB)) of the same molecule?
A: The inhibition of growth at 10 µM was 57%.

Q: And the inhibition of growth at 10 µM [8]?
A: The inhibition of growth at 10 µM was 39%.

Q: And the inhibition of growth at 10 µM (NCI-H522)?
A: Its inhibition of growth at 10 µM is 35%.

Q: And the inhibition of growth at 10 µM (CAKI-1)?
A: The inhibition of growth at 10 µM was 51%.

Q: With `CCOC(=O)c1c(C(=O)OCC)c2cccc(C)n2c1C(=O)c1cc(OC)c(OC)c(OC)c1` as the molecule, how does the IC50 [9] read?
A: Its IC50 is 174 µM.

Q: And the inhibition (Ovis aries)?
A: Its inhibition is 58%.
